Laboratory results: patent US20250092065A1, “2-(INDAZOL-5-YL)-6-(PIPERIDIN-4-YL)-1,7-NAPHTHYRIDINE DERIVATIVES AND RELATED COMPOUNDS AS MODULATORS FOR SPLICING NUCLEIC ACIDS AND FOR THE TREATMENT OF PROLIFERATIVE DISEASES” (REMIX THERAPEUTICS INC., priority 2022, published 2025)
pIC50: −log10 of the molar value.

Legend:
[1] = tested on: SMN2 mRNA; assay: RT-qPCR splicing assay, SMN2 mRNA; type: cell-based, human; conditions: Homo sapiens, canonical junction qPCR panel, Table 4; read-out: SMN2 IC50 (decrease in CJ mRNA levels)
Procedure, shortened: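 A673 or K562 cells treated 24 h at 37 °C with an 11-point 3-fold dilution series (top 10 uM, DMSO ≤0.25%). Lysates went directly to one-step RT-qPCR quantifying canonical (CJ) and alternative-exon (AJ) junctions, normalized to GAPDH, GUSB or PPIA. Values from ΔΔCt versus DMSO, RQ = 2^(−ΔΔCt), expressed as percentage response.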

[2] = tested on: Target C; assay: RT-qPCR canonical junction panel assay, Target C mRNA; type: cell-based; conditions: Table 4, read-out: Target C IC50 (decrease in CJ mRNA levels)
Procedure, shortened: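 A673 or K562 cells treated with compound; CJ mRNA quantified by junction-spanning RT-qPCR probe after cDNA synthesis, normalised to GAPDH, GUSB or PPIA and DMSO (2^−ΔΔCt), scaled to set ΔCt assay window; IC50 from 4-parameter fit of CJ decrease.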

Row | Structure (SMILES) | pIC50 [1] | pIC50 [2]
1 | Cc1c(O)c(-c2ncc3nc(N4CCNCC4)ccc3n2)cc2cn(C)nc12 [Compound 338, 2,7-dimethyl-5-[6-(piperazin-1-yl)pyrido[3,2-d]pyrimidin-2-yl]indazol-6-ol] | > 7.00 | 5.00 to 6.00
2 | Cn1cc2cc(-c3ccc4nc(N5CCC(NC67CC(O)(C6)C7)C5)ccc4n3)c(O)cc2n1 (stereo not shown) [Compound 341, 5-{6-[3-({3-hydroxybicyclo[1.1.1]pentan-1-yl}amino)pyrrolidin-1-yl]-1,5-naphthyridin-2-yl}-2-methylindazol-6-ol] | > 7.00 | 6.00 to 7.00
3 | Cc1c(O)c(-c2ncc3nc(N4CCC5(CCN5)C4)ccc3n2)cc2cn(C)nc12 (stereo not shown) [Compound 342, 5-(6-{1,6-diazaspiro[3.4]octan-6-yl}pyrido[3,2-d]pyrimidin-2-yl)-2,7-dimethylindazol-6-ol] | > 7.00 | 6.00 to 7.00
4 | Cc1cc2nc(-c3ccc4nc(N5CCC(NC(C)(C)C)C5)ccc4n3)cn2c(C)n1 (stereo not shown) [Compound 344, N-tert-butyl-1-(6-{5,7-dimethylimidazo[1,2-c]pyrimidin-2-yl}-1,5-naphthyridin-2-yl)pyrrolidin-3-amine] | > 7.00 | < 5.00
5 | Cc1nc2cc(O)c(-c3ccc4nc(N5CC[C@H](N[C@H]6C[C@H](F)C6)C5)ccc4n3)cc2o1 [Compound 350, 2-methyl-6-{6-[(3S)-3-{[(1r,3r)-3-fluorocyclobutyl]amino}pyrrolidin-1-yl]-1,5-naphthyridin-2-yl}-1,3-benzoxazol-5-ol] | > 7.00 | 6.00 to 7.00

Further lines, results first:

Row | pIC50 [1] | pIC50 [2] | Structure (SMILES)
6 | 6.00 to 7.00 | 6.00 to 7.00 | Cc1nc2cc(O)c(-c3ccc4nc(N5CCC(NC(C)(C)C)C5)ccc4n3)cc2n1C (stereo not shown) [Compound 339, 6-{6-[3-(tert-butylamino)pyrrolidin-1-yl]-1,5-naphthyridin-2-yl}-1,2-dimethyl-1,3-benzodiazol-5-ol]
7 | 6.00 to 7.00 | 6.00 to 7.00 | Cc1nc2cc(-c3ccc4nc(N5CCC(NC(C)(C)C)C5)ccc4n3)c(O)cc2n1C (stereo not shown) [Compound 340, 6-{6-[3-(tert-butylamino)pyrrolidin-1-yl]-1,5-naphthyridin-2-yl}-2,3-dimethyl-1,3-benzodiazol-5-ol]
8 | 6.00 to 7.00 | 5.00 to 6.00 | CCc1nc2cc(O)c(-c3ccc4nc(N5CCC(NC(C)(C)C)C5)ccc4n3)cc2o1 (stereo not shown) [Compound 346, 6-{6-[3-(tert-butylamino)pyrrolidin-1-yl]-1,5-naphthyridin-2-yl}-2-ethyl-1,3-benzoxazol-5-ol]
